Consider eleven compounds from patent publication US20240246977A1, “DEGRADATION OF BRUTON'S TYROSINE KINASE (BTK) BY CONJUGATION OF BTK INHIBITORS WITH E3 LIGASE LIGAND AND METHOD OF USE” (BeiGene Switzerland GmbH, priority 2021, published 2024).

The subject of one test is HEK-293 cells. The test is described as follows: HEK-293 cytotoxicity detection (CellTiter-Glo). It counts as cell-based. The following applies: Homo sapiens, 72 h, 72 h incubation, CellTiter-Glo luminescence, read-out: HEK293. In outline:
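HEK-293 cells exposed 72 h to 8 compounds doses (4-fold dilutions, top stock 5 mM at 500×) in 0.2% DMSO. Viability by CellTiter-Glo luminescence; inhibition normalised to DMSO high control and low control, IC50 from four-parameter curve fit.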
For orientation: Cellular ATP, detected with luciferase, serves as a proxy for viable cell number.

A further test deals with BTK (Homo sapiens, UniProt Q06187). The test is described as follows: BTK cell degradation in TMD-8 cells, HTRF assay. It is filed as cell-based. The following applies: 6 h treatment, IC50 (DC50) of BTK degradation. The arrangement: endogenous in cells; host or cells: TMD-8 cells. In outline: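 BTK levels read by HTRF in lysates of TMD-8 cells exposed to compounds for 6 h, eight concentrations at 6-fold steps in 0.2% DMSO. Percent degradation versus DMSO and low controls was fitted with a four-parameter equation to give DC50; Dmax is maximal degradation.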
A general note: TR-FRET usually uses a lanthanide donor and a delayed reading to cut background.

Sequence of BTK (Q06187 whole entry): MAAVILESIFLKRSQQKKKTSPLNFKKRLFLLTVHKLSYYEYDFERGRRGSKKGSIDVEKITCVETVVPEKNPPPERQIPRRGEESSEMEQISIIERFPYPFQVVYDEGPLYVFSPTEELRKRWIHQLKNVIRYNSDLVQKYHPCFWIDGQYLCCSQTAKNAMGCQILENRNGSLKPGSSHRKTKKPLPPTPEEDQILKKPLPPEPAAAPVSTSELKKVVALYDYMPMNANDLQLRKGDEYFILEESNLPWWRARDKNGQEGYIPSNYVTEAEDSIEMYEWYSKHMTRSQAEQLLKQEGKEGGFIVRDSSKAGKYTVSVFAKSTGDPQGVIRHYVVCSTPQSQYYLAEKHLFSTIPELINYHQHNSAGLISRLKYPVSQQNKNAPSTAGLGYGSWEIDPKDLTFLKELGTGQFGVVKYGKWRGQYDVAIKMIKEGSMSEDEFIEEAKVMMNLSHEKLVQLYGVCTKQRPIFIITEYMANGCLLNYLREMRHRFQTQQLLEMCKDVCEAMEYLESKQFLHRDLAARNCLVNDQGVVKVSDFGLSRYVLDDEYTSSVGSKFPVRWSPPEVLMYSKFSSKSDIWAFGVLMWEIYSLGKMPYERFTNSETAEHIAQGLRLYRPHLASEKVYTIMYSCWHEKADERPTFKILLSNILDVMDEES

With `COc1ccc(C)cc1C(=O)NCc1ccc(-c2nn3c(c2C(N)=O)Nc2ccc(N4CCN(CC5CCN(c6ccc(N7CCC(=O)NC7=O)cc6)CC5)CC4)cc2CC3)cc1C` [Example C39, 7-(4-((1-(4-(2,4-dioxotetrahydropyrimidin-1(2H)-yl)phenyl)piperidin-4-yl)methyl)piperazin-1-yl)-2-(4-((2-methoxy-5-methylbenzamido)methyl)-3-methylphenyl)-9,10-dihydro-4H-benzo[d]pyrazolo[1,5-a][1,3]diazepine-3-carboxamide], the IC50 in the test with HEK-293 cells is above 10000 nM. Moreover, on BTK, half-maximal degradation (DC50) was put at 8.52 nM.
The like results for `COc1c(F)cccc1C(=O)NCc1ccc(-c2nn3c(c2C(N)=O)Nc2ccc(N4CCN(CC5CCN(c6ccc(N7CCC(=O)NC7=O)cc6)CC5)CC4)cc2CC3)cc1C` [Example C40, 7-(4-((1-(4-(2,4-dioxotetrahydropyrimidin-1(2H)-yl)phenyl)piperidin-4-yl)methyl)piperazin-1-yl)-2-(4-((3-fluoro-2-methoxybenzamido)methyl)-3-methylphenyl)-9,10-dihydro-4H-benzo[d]pyrazolo[1,5-a][1,3]diazepine-3-carboxamide] were, in that order, above 10000 nM and 10.5 nM.
In the same order, the values of `COc1cc(F)ccc1C(=O)NCc1ccc(-c2nn3c(c2C(N)=O)Nc2ccc(N4CCN(CC5CCN(c6ccc(N7CCC(=O)NC7=O)cc6)CC5)CC4)cc2CC3)cc1C` [Example C41, 7-(4-((1-(4-(2,4-dioxotetrahydropyrimidin-1(2H)-yl)phenyl)piperidin-4-yl)methyl)piperazin-1-yl)-2-(4-((4-fluoro-2-methoxybenzamido)methyl)-3-methylphenyl)-9,10-dihydro-4H-benzo[d]pyrazolo[1,5-a][1,3]diazepine-3-carboxamide] are above 10000 nM and 9.74 nM.
The like results for `COc1ccc(F)cc1C(=O)NCc1ccc(-c2nn3c(c2C(N)=O)Nc2ccc(N4CCN(CC5CCN(c6ccc(N7CCC(=O)NC7=O)cc6)CC5)CC4)cc2CC3)cc1C` [Example C42, 7-(4-((1-(4-(2,4-dioxotetrahydropyrimidin-1(2H)-yl)phenyl)piperidin-4-yl)methyl)piperazin-1-yl)-2-(4-((5-fluoro-2-methoxybenzamido)methyl)-3-methylphenyl)-9,10-dihydro-4H-benzo[d]pyrazolo[1,5-a][1,3]diazepine-3-carboxamide] were, in that order, above 10000 nM and 5.36 nM.
For the compound `COc1c(F)c(F)c(F)c(F)c1C(=O)NCc1ccc(-c2nn3c(c2C(N)=O)Nc2ccc(N4CCN(CC5CCN(c6ccc(N7CCC(=O)NC7=O)cc6)CC5)CC4)cc2CC3)cc1C` [Example C43, 7-(4-((1-(4-(2,4-dioxotetrahydropyrimidin-1(2H)-yl)phenyl)piperidin-4-yl)methyl)piperazin-1-yl)-2-(3-methyl-4-((2,3,4,5-tetrafluoro-6-methoxybenzamido)methyl)phenyl)-9,10-dihydro-4H-benzo[d]pyrazolo[1,5-a][1,3]diazepine-3-carboxamide], the IC50 in the test on HEK-293 cells turned out to be 979 nM. At BTK, half-maximal degradation (DC50) was put at 29.4 nM.
In the same order, the values of `COc1ccccc1C(=O)NCc1ccc(-c2nn3c(c2C(N)=O)Nc2ccc(N4CCN(CC5CCN(c6ccc(N7CCC(=O)NC7=O)cc6)CC5)CC4)cc2CC3)c(OC)c1` [Example C44, 7-(4-((1-(4-(2,4-dioxotetrahydropyrimidin-1(2H)-yl)phenyl)piperidin-4-yl)methyl)piperazin-1-yl)-2-(2-methoxy-4-((2-methoxybenzamido)methyl)phenyl)-9,10-dihydro-4H-benzo[d]pyrazolo[1,5-a][1,3]diazepine-3-carboxamide] are 642 nM and 3.8 nM.
The like results for `COc1ccccc1C(=O)NCc1ccc(-c2nn3c(c2C(N)=O)Nc2ccc(N4CCN(CC5CCN(c6ccc(N7CCC(=O)NC7=O)cc6)CC5)CC4)cc2CC3)cc1C(F)(F)F` [Example C45, 7-(4-((1-(4-(2,4-dioxotetrahydropyrimidin-1(2H)-yl)phenyl)piperidin-4-yl)methyl)piperazin-1-yl)-2-(4-((2-methoxybenzamido)methyl)-3-(trifluoromethyl)phenyl)-9,10-dihydro-4H-benzo[d]pyrazolo[1,5-a][1,3]diazepine-3-carboxamide] were, in that order, above 10000 nM and 56.4 nM.
Take `COc1ccccc1C(=O)NCc1ccc(-c2nn3c(c2C(N)=O)Nc2ccc(N4CCN(CC5CCN(c6ccc(N7CCC(=O)NC7=O)cc6)CC5)CC4)cc2CC3)c(F)c1C` [Example C46, 7-(4-((1-(4-(2,4-dioxotetrahydropyrimidin-1(2H)-yl)phenyl)piperidin-4-yl)methyl)piperazin-1-yl)-2-(2-fluoro-4-((2-methoxybenzamido)methyl)-3-methylphenyl)-9,10-dihydro-4H-benzo[d]pyrazolo[1,5-a][1,3]diazepine-3-carboxamide]: in the test on HEK-293 cells, the IC50 is above 10000 nM. In addition, at BTK, it took 4.38 nM to reach half-maximal degradation (DC50).
The like results for `COc1ccccc1C(=O)NCc1ccc(-c2nn3c(c2C(N)=O)Nc2ccc(N4CCN(CC5CCN(c6ccc(N7CCC(=O)NC7=O)cc6)CC5)CC4)cc2CC3)c(F)c1F` [Example C47, 2-(2,3-difluoro-4-((2-methoxybenzamido)methyl)phenyl)-7-(4-((1-(4-(2,4-dioxotetrahydropyrimidin-1(2H)-yl)phenyl)piperidin-4-yl)methyl)piperazin-1-yl)-9,10-dihydro-4H-benzo[d]pyrazolo[1,5-a] [1,3]diazepine-3-carboxamide] were, in that order, 222 nM and 4.64 nM.
In the same order, the values of `COc1ccccc1C(=O)NCc1cc(F)c(-c2nn3c(c2C(N)=O)Nc2ccc(N4CCN(CC5CCN(c6ccc(N7CCC(=O)NC7=O)cc6)CC5)CC4)cc2CC3)cc1C` [Example C48, 7-(4-((1-(4-(2,4-dioxotetrahydropyrimidin-1(2H)-yl)phenyl)piperidin-4-yl)methyl)piperazin-1-yl)-2-(2-fluoro-4-((2-methoxybenzamido)methyl)-5-methylphenyl)-9,10-dihydro-4H-benzo[d]pyrazolo[1,5-a][1,3]diazepine-3-carboxamide] are above 10000 nM and 3.52 nM.
The like results for `COc1c(C)cccc1C(=O)NCc1ccc(-c2nn3c(c2C(N)=O)Nc2ccc(N4CCN(CC5CCN(c6ccc(N7CCC(=O)NC7=O)cc6)CC5)CC4)cc2CC3)cc1C` [Example C49, 7-(4-((1-(4-(2,4-dioxotetrahydropyrimidin-1(2H)-yl)phenyl)piperidin-4-yl)methyl)piperazin-1-yl)-2-(4-((2-methoxy-3-methylbenzamido)methyl)-3-methylphenyl)-9,10-dihydro-4H-benzo[d]pyrazolo[1,5-a][1,3]diazepine-3-carboxamide] were, in that order, above 10000 nM and 9.8 nM.
